Experimental data published in patent publication US20090047282A1, “Prophylactic/Therapeutic Agent for Cancer” (priority 2005, published 2009).
Where no end group is shown, it is not given here. The star is where a group is joined. Biotin = O=C1N[C@H]2[C@H](CS[C@H]2CCCCC(=O)*)N1

Legend:
human HHAT [1] = test: HHAT activity measurement with [3H] palmitoyl CoA and biotinylated substrate peptide on Streptavidin FlashPlate; type: biochemical; conditions: 10 μM substrate peptide, reaction 1 hour, FIG. 2
Description: A peptide (Shh-(24-38)) having 15-mer peptide comprised of amino acids from the 24th position to the 38th position of human Shh (SEQ ID NO: 22) modified with biotin at the lysine residue at the carboxylic terminus, and a peptide (Shh-(24-45)) having 22-mer peptide comprised of amino acids from the 24th position to the 45th position of human Shh modified with biotin at the lysine residue at the carboxylic terminus, were synthesized as a substrate peptide. An HHAT activity measuring system was produced by adding 50 μl reaction buffer (10 mM Tris-HCl (pH7.4), 50 mM magnesium chloride, 2 μM [^3H] palmitoyl CoA, and 400 μg/ml of HHAT enzyme solution) to a 96-well plate coated with streptavidin and a scintillator (Streptavidin FlashPlate, PerkinElmer). The above-mentioned synthetic peptides were added to the reaction system and reacted for a predetermined period. Then, the reaction was terminated by adding 200 μl of 1% aqueous solution of Triton X-100 to the reaction solution. After the reaction, the radioactivity of the reaction solution was measured by the scintillation counter as an HHAT activity.
[^3H] palmitoyl CoA was prepared from [^3H] palmitic acid (GE Healthcare) by a method described in Methods in Enzymology, 250, 299-300, 1995. […]

human HHAT [2] = test: Knockdown efficiency of siRNA checked with the TaqMan method (quantitative RT-PCR), human HHAT expression; type: cell-based; conditions: HT-29 cells, 100 nM siRNA, 5th day after introduction, vs non-silencing siRNA
Method: (§1) […] After culturing the cells overnight, siRNA to human Shh (Ambion; SEQ ID NO: 19), siRNA to human HHAT (Ambion; SEQ ID NO: 20), or non-silencing siRNA (Dhamacon, SEQ ID NO: 21) as a control was introduced. The introduction was performed by adding a mixture of 0.4 μl of DhamaFECT4 reagent (Dhamacon) per well and 100 nM of each siRNA to the cells. The knockdown efficiency of each siRNA at this point was checked with the TaqMan method. On the 5th day after the introduction of siRNA, total RNA was extracted from the HT-29 cells using RNeasy mini kit (QIAGEN), and cDNA was synthesized from a random primer using the TaqMan Gold RT-PCR kit (Applied Biosystems). 2 μl of the synthesized cDNA, 10 μl of 2×TaqMan Universal PCR Master Mix (Applied Biosystems), 1 μl of 20×TaqMan Gene Expression Assay (Applied Biosystems) to the human Shh or HHAT, and 7 μl of distilled water were added together to a total amount of 20 μl. This was used as a reaction solution of quantificative RT-PCR.
(§2) Regarding the reaction solution, the expression of human Shh or human HHAT was quantified in the ratio to GAPDH using the ABI PRISM 7700 Sequence Detection System. As compared with the control, the gene expression was suppressed by about 75% in the case of siRNA to human Shh and by about 60% in the case of siRNA to human HHAT.

human Shh = test: Knockdown efficiency of siRNA checked with the TaqMan method (quantitative RT-PCR), human Shh expression; type: cell-based; conditions: HT-29 cells, 100 nM siRNA, 5th day after introduction, vs non-silencing siRNA
Method: as §1, §2

For “Shh-(24-38): 15-mer peptide of amino acids 24 to 38 of human Shh (SEQ ID NO: 22), biotin-modified at the carboxy-terminal lysine residue; HHAT substrate peptide (CGPGRGFGKRRHPKK(Biotin))”, the “HHAT activity (radioactivity of [3H]-palmitic acid added to the substrate peptide) compared with control without HHAT enzyme solution” value (human HHAT [1]) was “conspicuous increase of the radioactivity”.

In the case of “Shh-(24-45): 22-mer peptide of amino acids 24 to 45 of human Shh, biotin-modified at the carboxy-terminal lysine residue; HHAT substrate peptide (CGPGRGFGKRRHPKKLTPLAYK(Biotin))”, the “HHAT activity (radioactivity of [3H]-palmitic acid added to the substrate peptide) compared with control without HHAT enzyme solution” value (human HHAT [1]) is reported as “conspicuous increase of the radioactivity”.

For “siRNA to human HHAT: siRNA to human HHAT (Ambion; SEQ ID NO: 20) (GGAAUUUGAGCUGGAGACUTT; chemistry not given here)”, the “suppression of gene expression of human HHAT (ratio to GAPDH) compared with the control” value (human HHAT [2]) was “about 60%”.

“siRNA to human Shh: siRNA to human Shh (Ambion; SEQ ID NO: 19) (GGGAAGAUCUCCAGAAACUTT; chemistry not given here)” was tested, and the “suppression of gene expression of human Shh (ratio to GAPDH) compared with the control” value (human Shh) was “about 75%”.
